# Experimental data published in patent US20170305893A1 (Thomas Helledays Stiftelse for Medicinsk Forskning, priority 2014, published 2017).
# Molecular target: T1, DCTPP1 (Homo sapiens, UniProt Q9H773)
# T1 sequence (Q9H773 1-170): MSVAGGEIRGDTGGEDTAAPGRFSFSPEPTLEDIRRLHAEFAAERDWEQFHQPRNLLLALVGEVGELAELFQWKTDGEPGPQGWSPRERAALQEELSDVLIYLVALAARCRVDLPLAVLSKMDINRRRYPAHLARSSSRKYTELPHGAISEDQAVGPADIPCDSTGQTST
# Assay: DCTPP1 inhibition assay (malachite green)
# Format: biochemical
# Settings: 35 nM DCTPP1, 35 μM dCTP, 20 minutes at 22° C.; read-out: IC50
# Method: DCTPP1 catalyzes the hydrolysis of dCTP to dCMP and PPi. By coupling the reaction to pyrophosphatase added in excess PPi is converted to Pi that can be detected by using the malachite green assay reagent. […] DCTPP1 diluted in assay buffer (100 mM Tris-acetate, 100 mM KCl, 10 mM magnesium acetate, 1 mM DTT and 0.005% Tween 20) fortified with E. coli pyrophosphatase (0.2 U/mL) is added to a final concentration of 35 nM. dCTP diluted in assay buffer is added to a final concentration of 35 μM. The reaction mixture is incubated with shaking for 20 minutes at 22° C. To 100 μl reaction mixture is added […] Malachite green assay reagent (0.095% Malachite green in 17% H2SO4, 1.5% Ammonium molybdate, 0.17% Tween 20) added followed by incubation with shaking for 15 minutes at 22° C. The absorbance of the assay plate is read at 630 nm using a SpectraMax plate reader (Molecular Devices).
row,IC50,Structure (SMILES)
1,65 nM,"Cc1cc2c(nc(C)n2Cc2ccc(B(O)O)cc2)c([N+](=O)[O-])c1C [Compound 2.2.60, (4-((2,5,6-trimethyl-4-nitro-1H-benzo[d]imidazol-1-yl)methyl)phenyl)boronic acid]"
2,410 nM,"Cc1nc2c([N+](=O)[O-])c(F)c(F)cc2n1Cc1ccccc1 [Compound 2.2.10, 1-benzyl-5,6-difluoro-2-methyl-4-nitro-1H-benzo[d]imidazole]"
3,14 nM,"COc1ccc(Cn2c(C(F)(F)F)nc3c([N+](=O)[O-])c(C)c(C)cc32)cc1 [Compound 2.2.58, 1-(4-methoxybenzyl)-5,6-dimethyl-4-nitro-2-(trifluoromethyl)-1H-benzo[d]imidazole]"
4,41 nM,"COc1ccc(Cn2c(C)nc3c([N+](=O)[O-])c(Cl)c(Cl)cc32)cc1 [Compound 2.2.20, 5,6-dichloro-1-(4-methoxybenzyl)-2-methyl-4-nitro-1H-benzo[d]imidazole]"
5,30 nM,"Cc1nc2c([N+](=O)[O-])c(Cl)c(Cl)cc2n1Cc1ccc(B2OC(C)(C)C(C)(C)O2)cc1 [Compound 2.2.49, 5,6-dichloro-2-methyl-4-nitro-1-(4-(4,4,5,5-tetramethyl-1,3,2-dioxaborolan-2-yl)benzyl)-1H-benzo[d]imidazole]"
6,27 nM,"O=[N+]([O-])c1c(Cl)c(Cl)cc2c1nc(C1CC1)n2Cc1ccc(B(O)O)cc1 [Compound 2.2.45, (4-((5,6-dichloro-2-cyclopropyl-4-nitro-1H-benzo[d]imidazol-1-yl)methyl)phenyl)boronic acid]"

# Same assay, conditions: 35 nM DCTPP1, 35 μM dCTP, 20 minutes at 22° C.; read-out: IC50 (nM), class
row,IC50,Structure (SMILES)
1,≥ 1000 nM,"Cc1nc2c([N+](=O)[O-])c(F)c(F)cc2n1Cc1ccc(C#N)cc1 [Compound 2.2.11, 4-((5,6-difluoro-2-methyl-4-nitro-1H-benzo[d]imidazol-1-yl)methyl)benzonitrile]"
2,100 to 500 nM,"COC(=O)c1ccc(Cn2c(C)nc3c([N+](=O)[O-])c(Cl)c(Cl)cc32)cc1 [Compound 2.2.38, methyl 4-((5,6-dichloro-2-methyl-4-nitro-1H-benzo[d]imidazol-1-yl)methyl)benzoate]"
3,100 to 500 nM,"Cc1nc2c([N+](=O)[O-])c(Cl)c(Cl)cc2n1Cc1ccc(C=O)cc1 [Compound 2.2.27, 4-((5,6-dichloro-2-methyl-4-nitro-1H-benzo[d]imidazol-1-yl)methyl)benzaldehyde]"
4,500 to 1000 nM,"Cc1nc2c([N+](=O)[O-])c(F)c(F)cc2n1Cc1ccc(B(O)O)cc1 [Compound 2.2.15, (4-((5,6-difluoro-2-methyl-4-nitro-1H-benzo[d]imidazol-1-yl)methyl)phenyl)boronic acid]"
5,< 100 nM,"Cc1nc2c([N+](=O)[O-])c(Cl)c(Cl)cc2n1Cc1ccc(C(N)=O)cc1 [Compound 2.2.39, 4-((5,6-dichloro-2-methyl-4-nitro-1H-benzo[d]imidazol-1-yl)methyl)benzamide]"
6,< 100 nM,"C=CC(=O)c1ccc(Cn2c(C)nc3c([N+](=O)[O-])c(Cl)c(Cl)cc32)cc1 [Compound 2.2.30, 1-(4-((5,6-dichloro-2-methyl-4-nitro-1H-benzo[d]imidazol-1-yl)methyl)phenyl)prop-2-en-1-one]"
7,< 100 nM,"Cc1ccc(Cn2c(C)nc3c([N+](=O)[O-])c(Cl)c(Cl)cc32)cc1 [Compound 2.2.26, 5,6-dichloro-2-methyl-1-(4-methylbenzyl)-4-nitro-1H-benzo[d]imidazole]"
8,500 to 1000 nM,"Cc1nc2c([N+](=O)[O-])c(F)c(F)cc2n1Cc1ccc(F)cc1 [Compound 2.2.12, 5,6-difluoro-1-(4-fluorobenzyl)-2-methyl-4-nitro-1H-benzo[d]imidazole]"
9,< 100 nM,"Cc1cc2c(nc(C(F)(F)F)n2Cc2ccc(B(O)O)cc2)c([N+](=O)[O-])c1C [Compound 2.2.61, (4-((5,6-dimethyl-4-nitro-2-(trifluoromethyl)-1H-benzo[d]imidazol-1-yl)methyl)phenyl)boronic acid]"
10,100 to 500 nM,"Cc1cc2c(nc(C)n2Cc2ccc(F)cc2)c([N+](=O)[O-])c1C [Compound 2.2.56, 1-(4-fluorobenzyl)-2,5,6-trimethyl-4-nitro-1H-benzo[d]imidazole]"
11,< 100 nM,"Cc1nc2c([N+](=O)[O-])c(Cl)c(Cl)cc2n1Cc1ccccc1B(O)O [Compound 2.2.46, (2-((5,6-dichloro-2-methyl-4-nitro-1H-benzo[d]imidazol-1-yl)methyl)phenyl)boronic acid]"
12,< 100 nM,"COc1ccc(Cn2c(C)nc3c([N+](=O)[O-])c(Cl)c(Cl)cc32)cc1 [Compound 2.2.20, 5,6-dichloro-1-(4-methoxybenzyl)-2-methyl-4-nitro-1H-benzo[d]imidazole]"
13,≥ 1000 nM,"Cc1nc2c([N+](=O)[O-])c(F)c(F)cc2n1Cc1ccc(-n2cncn2)cc1 [Compound 2.2.13, 1-(4-(1H-1,2,4-triazol-1-yl)benzyl)-5,6-difluoro-2-methyl-4-nitro-1H-benzo[d]imidazole]"
14,< 100 nM,"Cc1nc2c([N+](=O)[O-])c(Cl)c(Cl)cc2n1Cc1ccc(C(=O)O)cc1 [Compound 2.2.37, 4-((5,6-dichloro-2-methyl-4-nitro-1H-benzo[d]imidazol-1-yl)methyl)benzoic acid]"
15,100 to 500 nM,"Cc1nc(Cn2c(C)nc3c([N+](=O)[O-])c(Cl)c(Cl)cc32)cs1 [Compound 2.2.42, 4-((5,6-dichloro-2-methyl-4-nitro-1H-benzo[d]imidazol-1-yl)methyl)-2-methylthiazole]"
16,100 to 500 nM,"COc1cccc(Cn2c(C)nc3c([N+](=O)[O-])c(Cl)c(Cl)cc32)c1 [Compound 2.2.21, 5,6-dichloro-1-(3-methoxybenzyl)-2-methyl-4-nitro-1H-benzo[d]imidazole]"
17,≥ 1000 nM,"COc1ccc(Cn2c(C(F)(F)F)nc3c([N+](=O)[O-])cccc32)cc1 [Compound 2.2.4, 1-(4-methoxybenzyl)-4-nitro-2-(trifluoromethyl)-1H-benzo[d]imidazole]"

row,IC50,Structure (SMILES)
1,< 100 nM,"Cc1nc2c([N+](=O)[O-])c(Cl)c(Cl)cc2n1-c1ccccc1 [Compound 2.2.16, 5,6-dichloro-2-methyl-4-nitro-1-phenyl-1H-benzo[d]imidazole]"
2,< 100 nM,"Cc1nc2c([N+](=O)[O-])c(Cl)c(Cl)cc2n1Cc1ccccc1 [Compound 2.2.19, 1-benzyl-5,6-dichloro-2-methyl-4-nitro-1H-benzo[d]imidazole]"
3,100 to 500 nM,"Cc1nc2c([N+](=O)[O-])c(Cl)c(Cl)cc2n1Cc1ccc(Cl)nc1 [Compound 2.2.43, 5,6-dichloro-1-((6-chloropyridin-3-yl)methyl)-2-methyl-4-nitro-1H-benzo[d]imidazole]"
4,≥ 1000 nM,"COc1ccc(Cn2c(C(C)C)nc3c([N+](=O)[O-])cccc32)cc1 [Compound 2.2.7, 2-isopropyl-1-(4-methoxybenzyl)-4-nitro-1H-benzo[d]imidazole]"
5,< 100 nM,"O=[N+]([O-])c1c(Cl)c(Cl)cc2c1nc(C1CC1)n2Cc1ccc(B(O)O)cc1 [Compound 2.2.45, (4-((5,6-dichloro-2-cyclopropyl-4-nitro-1H-benzo[d]imidazol-1-yl)methyl)phenyl)boronic acid]"
6,< 100 nM,"CC(=O)Oc1ccc(Cn2c(C)nc3c([N+](=O)[O-])c(Cl)c(Cl)cc32)cc1 [Compound 2.2.22, 4-((5,6-dichloro-2-methyl-4-nitro-1H-benzo[d]imidazol-1-yl)methyl)phenyl acetate]"
7,≥ 1000 nM,"COc1ccc(Cn2c(-c3ccccc3)nc3c([N+](=O)[O-])cccc32)cc1 [Compound 2.2.2, 1-(4-methoxybenzyl)-4-nitro-2-phenyl-1H-benzo[d]imidazole]"
8,≥ 1000 nM,"COCc1nc2c([N+](=O)[O-])cccc2n1Cc1ccc(OC)cc1 [Compound 2.2.6, 1-(4-methoxybenzyl)-2-(methoxymethyl)-4-nitro-1H-benzo[d]imidazole]"
9,500 to 1000 nM,"Cc1nc2c([N+](=O)[O-])c(Cl)c(Cl)cc2n1Cc1ccc(-n2cncn2)cc1 [Compound 2.2.35, 1-(4-(1H-1,2,4-triazol-1-yl)benzyl)-5,6-dichloro-2-methyl-4-nitro-1H-benzo[d]imidazole]"
10,≥ 1000 nM,"COc1cc(Cn2c(C)nc3c([N+](=O)[O-])c(C)c(C)cc32)cc(OC)c1OC [Compound 2.2.52, 2,5,6-trimethyl-4-nitro-1-(3,4,5-trimethoxybenzyl)-1H-benzo[d]imidazole]"
11,< 100 nM,"Cc1nc2c([N+](=O)[O-])c(Cl)c(Cl)cc2n1Cc1ccc(-n2cccn2)cc1 [Compound 2.2.34, 1-(4-(1H-pyrazol-1-yl)benzyl)-5,6-dichloro-2-methyl-4-nitro-1H-benzo[d]imidazole]"
12,≥ 1000 nM,"COc1ccc(Cn2c(Cc3ccccc3)nc3cccc([N+](=O)[O-])c32)cc1 [Compound 2.3.1, 2-benzyl-1-(4-methoxybenzyl)-7-nitro-1H-benzo[d]imidazole]"
13,100 to 500 nM,"Cc1cc2c(nc(C)n2Cc2ccc(OC(F)(F)F)cc2)c([N+](=O)[O-])c1C [Compound 2.2.57, 2,5,6-trimethyl-4-nitro-1-(4-(trifluoromethoxy)benzyl)-1H-benzo[d]imidazole]"
14,< 100 nM,"Cc1nc2c([N+](=O)[O-])c(Cl)c(Cl)cc2n1Cc1cccc(B(O)O)c1 [Compound 2.2.47, (3-((5,6-dichloro-2-methyl-4-nitro-1H-benzo[d]imidazol-1-yl)methyl)phenyl)boronic acid]"
15,< 100 nM,"C=CC(=O)Nc1ccc(Cn2c(C)nc3c([N+](=O)[O-])c(Cl)c(Cl)cc32)cc1 [Compound 2.2.32, N-(4-((5,6-dichloro-2-methyl-4-nitro-1H-benzo[d]imidazol-1-yl)methyl)phenyl)acrylamide]"
16,100 to 500 nM,"Cc1nc2c([N+](=O)[O-])c(Cl)c(Cl)cc2n1Cc1ccc(C#N)cc1 [Compound 2.2.40, 4-((5,6-dichloro-2-methyl-4-nitro-1H-benzo[d]imidazol-1-yl)methyl)benzonitrile]"
